{"source": "patent US20090292012A1", "about": "“Therapeutic Agent” (priority 2005, published 2009)", "key": {"[1]": {"system": "RAW 264.7 cells", "test": "Determination of anti-foaming in macrophage (cholesterol ester accumulation with Ac-LDL)", "assay_type": "cell-based", "settings": "Ac-LDL 20 μg/mL, 24 hours", "procedure": "Macrophage introduces a modified LDL (such as acetyl LDL (Ac-LDL) into a cell to synthesize cholesterol ester, thereby foaming. An anti-foaming activity for the macrophage with each subject sample was determined.\nRAW 264.7 cells (ATCC TIB 71) were suspended in Dulbecco's modified Eagle's medium (manufactured by Sigma, D5796) containing 10% fetal bovine serum (manufactured by Cambrex Corporation), so as to have a concentration of 4×10^5 cells/ml, and the suspension was put to each well of a 24-well microtiter plate in an amount of 1 ml per well. The cells were cultured at 37° C. overnight in the presence of 5% carbon dioxide gas. Next, the medium was exchanged with UltraCHO media (manufactured by Cambrex Corporation, B2724) and 2 μL of the dimethyl sulfoxide solution of each of the subject samples prepared in the above-mentioned Preparation Examples was added to each well so as to have a concentration shown in the following Table 1. Here, the purified ethanol extract fraction from a leaf of Peucedanum japonicum -Fr. 2-2 was used for 3′-acetoxy-4′-senecioyloxy-3′,4′-dihydroseselin in Table 1. Further, Ac-LDL (manufactured by Biomedical Technology, Inc., BT-906) at a final concentration of 20 μg/mL was added to each well, and each mixture was cultured for 24 hours. Here, there were set a group without addition of Ac-LDL and a group with addition of dimethyl sulfoxide as controls.\nThe total amount of cholesterol in a cell and the amount of free cholesterol were determined to calculate the amount of cholesterol ester as an index for anti-foaming for macrophage.\nAfter the termination of the culture, the medium was removed, and the cells were washed with a 0.3% (w/v) BSA (manufactured by Sigma, A-8022) containing phosphate buffered saline and further washed with a phosphate buffered saline. The amount 0.5 mL of a solvent of hexane:isopropanol=3:2 was added to the cells. The mixture was allowed to stand at room temperature for 30 minutes, and thereafter the supernatant was collected. The procedures were repeated again, and a total of 1 mL of the supernatant was concentrated to dryness. The precipitate was dissolved in 30 μL of isopropanol, and thereafter the total amount of cholesterol contained in 10 μL of the resulting solution was determined with Cholesterol E-Test (manufactured by Wako Pure Chemical Industries, Ltd., 439-17501) and the amount of free cholesterol was determined with Free Cholesterol E-Test (manufactured by Wako Pure Chemical Industries, Ltd., 435-35801). All of the determinations were carried out twice. The amount of biosynthesis of cholesterol ester was determined by subtracting the amount of free cholesterol from the total amount of cholesterol. The anti-foaming activity was calculated in accordance with the following formula. […]"}, "[2]": {"system": "ACAT", "test": "Determination of inhibitory activity for ACAT, rat liver microsome, [3H]oleoyl-CoA", "assay_type": "biochemical", "settings": "relative to 10 μM FR179254 set as 100%", "procedure": "Four of Sprague-Dawley rats were bred for one week and thereafter sacrificed, and the livers were immediately excised. The excised livers were shortly washed with cold brine, and thereafter immersed (25 mL/a rat) into sucrose buffer (0.3 M sucrose, 50 mM Tris-HCl, 1 mM EDTA, 50 mM NaCl, pH 7.4). The resulting livers were homogenized, and the procedures of centrifuging at 10,000×g for 30 minutes and removing the formed precipitates were repeated twice for the homogenized livers. The resulting supernatant was centrifuged at 105,000×g for 70 minutes, and the precipitates were collected and suspended in an appropriate amount of 100 mM phosphate buffer (pH 7.4). The suspension was again suspended in the phosphate buffer so as to have a protein concentration of 10 mg/ml, and EDTA was added thereto so as to have a final concentration of 1 mM. Thereafter, the suspension was subjected to frozen storage at −80° C. until being used.\nThe enzymatic activity of ACAT was determined according to the partially modified method of Lee et al. (Planta Med., 2004, 70, 678-679).\nIn a 1.5 mL Eppendorf tube, 1 μL of a dimethyl sulfoxide solution of each subject sample was added to a 92 μL of a reaction aqueous solution (0.05 M potassium phosphate, 1 mM dithiothreitol, 9 mg/mL fatty acid-free bovine serum albumin, 200 μg/mL cholesterol, pH 7.4) containing 1.5 μL of the rat liver microsome prepared in item (1) of Example 2 so as to have a final concentration described in Table 2, and the mixture was incubated at 37° C. for 30 minutes. Here, the purified ethanol extract fraction from a leaf of Peucedanum japonicum -Fr. […] The radioactivity was determined with a liquid scintillation counter LS6500 (manufactured by Beckmann) using 150 μL of the resulting supernatant with Ultima Gold (manufactured by PerkinElmer Life Sciences Inc., 6013329) as a scintillation cocktail. […] The inhibitory activity for ACAT (%) of each of the subject samples was calculated in accordance with the following formula setting an inhibitory ratio upon addition of 10 μM FR179254 which is a positive control as 100%. […]"}, "[3]": {"system": "mouse", "test": "Single oral dose toxicity in mouse", "assay_type": "in vivo", "settings": "1 g/kg weight", "procedure": "No toxicity is found even when the above-mentioned effective ingredient used in the present invention is administered in an effective dose for the exhibition of its action in a living body."}}}
{"smiles": "CC(=O)OC1C(OC(=O)C=C(C)C)c2c(ccc3ccc(=O)oc23)OC1(C)C", "note": "(centres unmarked) [3′-acetoxy-4′-senecioyloxy-3′,4′-dihydroseselin]", "values": [{"measurement": "inhibition at 20 µM", "setting": "[1]; Mus musculus, RAW264.7, final concentration 20 μM", "value": 19, "unit": "%"}, {"measurement": "inhibition at 40 µM", "setting": "[1]; Mus musculus, RAW264.7, final concentration 40 μM", "value": 98, "unit": "%"}, {"measurement": "Anti-Foaming Activity (%)", "setting": "[1]; final concentration 0.1 %", "value": 34, "unit": "%"}, {"measurement": "Anti-Foaming Activity (%)", "setting": "[1]; final concentration 0.2 %", "value": 72, "unit": "%"}, {"measurement": "Inhibitory Activity for ACAT (%)", "setting": "[2]; final concentration 25 μM", "value": 40, "unit": "%"}, {"measurement": "Inhibitory Activity for ACAT (%)", "setting": "[2]; final concentration 50 μM", "value": 65, "unit": "%"}, {"measurement": "Inhibitory Activity for ACAT (%)", "setting": "[2]; final concentration 100 μM", "value": 87, "unit": "%"}, {"measurement": "deaths after oral administration", "setting": "[3]", "value": "no cases of deaths are found"}]}
